Test results as given in PMC8309005, “Novel Non-Congeneric Derivatives of the Choline Kinase Alpha Inhibitor ICL-CCIC-0019” (Pharmaceutics, 2021).
Each block holds one compound with its values, some of them ahead of it.

Tests used:
PI3Ka E524K + p85 = test: Lipid kinase screening (ADP-Glo), PI3Ka E524K + p85; type: biochemical, human; conditions: 10 μM
Protocol: (§1) The lipid kinase screening for ICL-CCIC-0019, CK14, CK145 (5), CK146 (4) and CK147 (8) (testing concentration for all compounds: 10 μM) was performed by MRC PPU International Centre for Kinase Profiling (Dundee, UK). The lipid kinase screening panel includes 15 human recombinant lipid kinases and the tests used Promega ADP Glo^TM High Throughput Assay kit (Promega, Southampton, UK). For each assay, reference compounds were used as quality control. Finally, mean percentage activity inhibited by compounds and standard deviation for all the repeats were calculated.

DGK g = DGK g (Homo sapiens, UniProt P49619); test: Lipid kinase screening (ADP-Glo), DGK g; type: biochemical
Protocol: as §1

CHK a (CHKA) = CHK a (CHKA) (Homo sapiens, UniProt P35790); test: Lipid kinase screening (ADP-Glo), CHKA; type: biochemical
Protocol: as §1

[1] = Matrix stability assay in fasted state simulated gastric fluid (FaSSGF); type: in vitro ADME
Protocol: (§2) The ADME study for ICL-CCIC-0019, CK14, CK145 (5), CK146 (4) and CK147 (8) was performed by Charles River Drug Discovery Services (Essex, UK).
(§3) The predicted in vitro pharmacokinetic characteristics of compounds were evaluated by four ADME assays, namely kinetic solubility assay, metabolic stability assay using human liver microsome S9, permeability and efflux study using the Caco-2 cell line, and matrix stability assay using fasted state simulated gastric fluid (FaSSGF). All tested CHKA inhibitors were highly soluble (>150 μM) in 0.1 M PBS (2% DMSO) (Table 1). […] The in vivo clearance was calculated to predict the actual clearance in humans by scaling the clearance values, which takes into account liver weight, microsomes per liver and liver blood flow. […] In Caco-2 cell permeability assay, drug permeability was investigated and presented as apparent permeability coefficients (Papp) in A to B (A-B, apical to basolateral direction) and B to A (B-A, basolateral to apical direction).

[2] = Caco-2 permeability and efflux study; type: in vitro ADME, human; conditions: human
Protocol: as §2, §3

PIP5K2A = target: T1, PIP5K2A (Homo sapiens, UniProt P48426); test: Lipid kinase screening (ADP-Glo), PIP5K2A; type: biochemical
T1 sequence (P48426 1-406): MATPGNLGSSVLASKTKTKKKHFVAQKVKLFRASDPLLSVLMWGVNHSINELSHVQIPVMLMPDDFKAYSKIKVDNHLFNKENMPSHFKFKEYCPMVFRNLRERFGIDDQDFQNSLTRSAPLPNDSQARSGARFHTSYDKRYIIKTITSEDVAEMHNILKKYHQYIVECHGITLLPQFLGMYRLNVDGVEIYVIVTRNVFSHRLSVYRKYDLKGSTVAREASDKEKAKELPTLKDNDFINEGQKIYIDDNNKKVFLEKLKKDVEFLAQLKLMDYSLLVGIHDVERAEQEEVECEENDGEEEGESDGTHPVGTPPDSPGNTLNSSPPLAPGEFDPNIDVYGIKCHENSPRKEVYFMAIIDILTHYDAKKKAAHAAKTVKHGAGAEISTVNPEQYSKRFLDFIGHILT
Protocol: as §1

DGK z = DGK z (Homo sapiens, UniProt Q13574); test: Lipid kinase screening (ADP-Glo), DGK z; type: biochemical
Protocol: as §1

SPHK1 = SPHK1 (Homo sapiens, UniProt Q9NYA1); test: Lipid kinase screening (ADP-Glo), SPHK1; type: biochemical
Protocol: as §1

A549 = conditions: cited from earlier work
[3] = target: phosphatidylinositol 4-kinase beta (PIK4CB) (Homo sapiens, UniProt Q9UBF8); test: Lipid kinase screening (ADP-Glo), PIK4CB; type: biochemical
Protocol: as §1

Kinetic solubility assay = type: physicochemical; conditions: 0.1 M PBS (2% DMSO), aqueous buffer, kinetic from dmso stock; read-out: Kinetic Solubility: Solubility
Protocol: as §2, §3

PI3Ka E545K + p85 = PI3Ka E545K + p85 (Homo sapiens, UniProt P42336, E545K); test: Lipid kinase screening (ADP-Glo), PI3Ka E545K + p85; type: biochemical
Protocol: as §1

[4] = tested on: [18F]D4-FCH uptake in C4-2B cells; test: [18F]D4-FCH uptake in vitro study, C4-2B; type: cell-based; conditions: Homo sapiens
Protocol: HCT-116 and C4-2B cells were seeded at a density of 5 × 10^5 cells per well into 6-well plates and incubated overnight. Cells were treated with 1 or 10 µM CHKA inhibitors (CK14, CK145, CK146 and CK147) for 1 h and pulsed with [^18F]D4-FCH (740 kBq) in presence of inhibitors in 1 mL for an additional hour at 37 °C. Cells were washed with ice-cold PBS three times and lysed in 1 mL RIPA buffer. The radioactivity of 800 µL lysate from each well was counted on a gamma counter (Perkin Elmer, Beaconsfield, UK) and normalized to protein content as determined by BCA assay.

[5] = tested on: Δ49N CHKA2 (recombinant CHKA2); conditions: read-out: IC50 against recombinant CHKA2; cited from earlier work
SPHK2 = target: T2, SPHK2 (Homo sapiens, UniProt Q9NRA0); test: Lipid kinase screening (ADP-Glo), SPHK2; type: biochemical
T2 sequence (Q9NRA0 1-654): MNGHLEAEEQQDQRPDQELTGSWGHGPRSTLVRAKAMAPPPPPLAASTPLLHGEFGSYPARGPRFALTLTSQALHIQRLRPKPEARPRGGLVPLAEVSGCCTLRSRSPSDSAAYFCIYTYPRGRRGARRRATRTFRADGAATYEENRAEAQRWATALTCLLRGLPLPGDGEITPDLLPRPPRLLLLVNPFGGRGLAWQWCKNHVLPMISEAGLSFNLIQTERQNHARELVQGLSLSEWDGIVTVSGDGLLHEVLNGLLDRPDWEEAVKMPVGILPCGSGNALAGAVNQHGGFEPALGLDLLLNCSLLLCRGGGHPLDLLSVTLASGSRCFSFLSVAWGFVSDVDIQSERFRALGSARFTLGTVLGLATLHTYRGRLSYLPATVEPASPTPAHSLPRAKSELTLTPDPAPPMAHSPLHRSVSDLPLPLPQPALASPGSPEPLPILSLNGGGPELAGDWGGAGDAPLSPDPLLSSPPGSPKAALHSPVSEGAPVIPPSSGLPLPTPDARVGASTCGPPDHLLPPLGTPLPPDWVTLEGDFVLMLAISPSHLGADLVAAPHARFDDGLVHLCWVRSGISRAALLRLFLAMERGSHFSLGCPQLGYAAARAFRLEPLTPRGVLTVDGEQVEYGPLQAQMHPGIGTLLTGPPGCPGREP
Protocol: as §1

[6] = Human microsomal metabolic stability assay; type: in vitro ADME
Protocol: as §2, §3

DGK b = DGK b (Homo sapiens, UniProt Q9Y6T7); test: Lipid kinase screening (ADP-Glo), DGK b; type: biochemical
Protocol: as §1

HCT-116 = conditions: cited from earlier work
PI3K g = PI3K g (Homo sapiens, UniProt P48736); test: Lipid kinase screening (ADP-Glo), PI3K g; type: biochemical
Protocol: as §1

PI3K b = PI3K b (Homo sapiens, UniProt P42338); test: Lipid kinase screening (ADP-Glo), PI3K b; type: biochemical
Protocol: as §1

CHK b (CHKB) = CHK b (CHKB) (Homo sapiens, UniProt Q9Y259); test: Lipid kinase screening (ADP-Glo), CHKB; type: biochemical
Protocol: as §1

PI3K a = PI3K a (Homo sapiens, UniProt P42336); test: Lipid kinase screening (ADP-Glo), PI3K a; type: biochemical
Protocol: as §1

PI4K2a = PI4K2a (Homo sapiens, UniProt Q9BTU6); test: Lipid kinase screening (ADP-Glo), PI4K2a; type: biochemical
Protocol: as §1

[7] = tested on: C4-2B prostate cancer cells; test: Cellular uptake and metabolism study in C4-2B with or without serum (HPLC); conditions: 50 μM, 4 h
Protocol: Cell lysate sample preparation: C4-2B prostate cancer cells were seeded into cell culture dishes (150 × 25 mm) at a density of 7 × 10^6 per dish. The cells were allowed to settle and grow for another 48 h. The cells were treated with ICL-CCIC-0019, CK146, CK147 and CK148 (50 μM of 7 mL RPMI medium with or without 10% FCS) for 4 h in the incubator. After 4-h incubation, the aliquots of medium were collected (see the medium sample preparation section). Cells were scraped, washed with ice-cold PBS three times and collected by centrifugation (4 °C, 4000× g). The cell pellets were resuspended in 500 μL of chilled acetonitrile:PBS (50:50, v/v) for cell disruption and homogenization. The cell disruption was performed by a Precellys® 24 homogenizer (Bertin Technologies, Montigny-le-Bretonneux, France) at 4 °C. After acetonitrile evaporation at room temperature, 50 μL of cell lysis was taken for protein analysis. Another 100 μL of the supernatant obtained after centrifuge (4 °C, 15,000× g) was resuspended in 100 μL formic acid:water (0.2%, v/v). Next, 100 μL of the filtered solution was analyzed by HPLC system described in Supplementary HPLC method D. Three injections were performed for each sample. Intracellular drug was normalized to cellular protein of each plate using BCA assay. Medium sample preparation for HPLC analysis: 250-μL aliquots of medium (with or without 10% FCS) were transferred into 1.5-mL tube containing 250 μL acetonitrile. After a brief vortex, the tube was placed at 4 °C for 30 min for protein precipitation. One hundred microliters of the resulting supernatant from centrifuge (4 °C, 15,000× g) were resuspended in 100 μL formic acid: water (0.2%, v/v). One hundred microliters of the filtered sample were analyzed by HPLC system described in Supplementary HPLC method D. Three injections were performed for each sample.

DGK g, sequence (P49619 whole entry): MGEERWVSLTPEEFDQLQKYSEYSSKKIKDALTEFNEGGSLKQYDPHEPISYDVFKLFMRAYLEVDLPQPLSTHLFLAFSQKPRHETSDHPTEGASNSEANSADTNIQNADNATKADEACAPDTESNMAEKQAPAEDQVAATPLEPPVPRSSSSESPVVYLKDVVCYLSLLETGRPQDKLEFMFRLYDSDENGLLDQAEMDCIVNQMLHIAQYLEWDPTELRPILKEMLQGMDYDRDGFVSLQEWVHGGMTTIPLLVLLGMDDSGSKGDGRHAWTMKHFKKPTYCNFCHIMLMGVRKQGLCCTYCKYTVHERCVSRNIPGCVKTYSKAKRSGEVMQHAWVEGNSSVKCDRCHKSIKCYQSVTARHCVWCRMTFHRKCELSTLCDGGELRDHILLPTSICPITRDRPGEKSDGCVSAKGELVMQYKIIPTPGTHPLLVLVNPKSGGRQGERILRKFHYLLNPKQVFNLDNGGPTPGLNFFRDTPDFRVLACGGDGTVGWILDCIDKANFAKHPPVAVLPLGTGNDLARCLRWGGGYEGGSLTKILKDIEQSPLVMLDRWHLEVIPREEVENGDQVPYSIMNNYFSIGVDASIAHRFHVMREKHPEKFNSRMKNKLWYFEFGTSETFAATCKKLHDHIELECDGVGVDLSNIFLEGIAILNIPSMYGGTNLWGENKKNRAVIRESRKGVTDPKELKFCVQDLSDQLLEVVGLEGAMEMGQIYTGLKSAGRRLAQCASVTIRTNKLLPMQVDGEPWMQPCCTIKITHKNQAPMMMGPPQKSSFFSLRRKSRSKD
SPHK1, sequence (Q9NYA1 whole entry): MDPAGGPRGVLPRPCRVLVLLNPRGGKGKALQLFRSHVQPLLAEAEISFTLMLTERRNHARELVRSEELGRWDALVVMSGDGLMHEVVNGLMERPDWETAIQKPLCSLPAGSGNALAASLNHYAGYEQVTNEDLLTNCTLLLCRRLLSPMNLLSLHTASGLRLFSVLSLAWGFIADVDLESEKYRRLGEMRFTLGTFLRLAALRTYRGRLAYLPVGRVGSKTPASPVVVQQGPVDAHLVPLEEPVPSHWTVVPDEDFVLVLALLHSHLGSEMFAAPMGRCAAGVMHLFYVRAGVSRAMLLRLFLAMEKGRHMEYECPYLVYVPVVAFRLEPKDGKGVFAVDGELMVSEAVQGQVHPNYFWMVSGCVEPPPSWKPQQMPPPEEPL
PI3K g, sequence (P48736 whole entry): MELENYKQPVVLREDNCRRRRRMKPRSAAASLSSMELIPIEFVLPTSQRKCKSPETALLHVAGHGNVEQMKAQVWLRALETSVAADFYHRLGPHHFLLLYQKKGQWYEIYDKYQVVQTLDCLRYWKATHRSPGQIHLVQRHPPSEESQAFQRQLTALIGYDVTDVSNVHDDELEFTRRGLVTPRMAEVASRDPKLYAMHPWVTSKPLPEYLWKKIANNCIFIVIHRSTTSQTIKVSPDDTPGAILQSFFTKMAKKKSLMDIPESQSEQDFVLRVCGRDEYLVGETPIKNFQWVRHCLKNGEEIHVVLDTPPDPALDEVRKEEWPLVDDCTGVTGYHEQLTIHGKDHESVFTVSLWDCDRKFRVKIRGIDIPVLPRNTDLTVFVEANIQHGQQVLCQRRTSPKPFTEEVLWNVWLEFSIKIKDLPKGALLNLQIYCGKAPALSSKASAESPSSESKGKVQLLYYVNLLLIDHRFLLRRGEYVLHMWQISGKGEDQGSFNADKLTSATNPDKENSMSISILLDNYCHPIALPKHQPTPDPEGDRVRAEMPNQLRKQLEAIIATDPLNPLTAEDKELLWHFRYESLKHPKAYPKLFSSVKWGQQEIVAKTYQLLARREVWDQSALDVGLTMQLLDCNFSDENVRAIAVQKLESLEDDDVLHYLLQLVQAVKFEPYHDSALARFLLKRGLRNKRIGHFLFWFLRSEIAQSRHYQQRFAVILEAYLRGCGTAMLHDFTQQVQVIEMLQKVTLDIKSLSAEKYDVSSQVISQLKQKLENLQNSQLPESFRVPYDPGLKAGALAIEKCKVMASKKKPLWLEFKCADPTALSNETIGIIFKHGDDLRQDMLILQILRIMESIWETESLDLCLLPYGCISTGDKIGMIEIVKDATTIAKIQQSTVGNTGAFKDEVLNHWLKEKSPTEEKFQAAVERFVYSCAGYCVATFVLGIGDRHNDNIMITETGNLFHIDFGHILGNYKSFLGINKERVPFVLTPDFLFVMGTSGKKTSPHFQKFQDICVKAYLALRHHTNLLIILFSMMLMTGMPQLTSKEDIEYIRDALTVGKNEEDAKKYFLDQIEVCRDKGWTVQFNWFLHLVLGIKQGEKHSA
CHK a (CHKA), sequence (P35790 whole entry): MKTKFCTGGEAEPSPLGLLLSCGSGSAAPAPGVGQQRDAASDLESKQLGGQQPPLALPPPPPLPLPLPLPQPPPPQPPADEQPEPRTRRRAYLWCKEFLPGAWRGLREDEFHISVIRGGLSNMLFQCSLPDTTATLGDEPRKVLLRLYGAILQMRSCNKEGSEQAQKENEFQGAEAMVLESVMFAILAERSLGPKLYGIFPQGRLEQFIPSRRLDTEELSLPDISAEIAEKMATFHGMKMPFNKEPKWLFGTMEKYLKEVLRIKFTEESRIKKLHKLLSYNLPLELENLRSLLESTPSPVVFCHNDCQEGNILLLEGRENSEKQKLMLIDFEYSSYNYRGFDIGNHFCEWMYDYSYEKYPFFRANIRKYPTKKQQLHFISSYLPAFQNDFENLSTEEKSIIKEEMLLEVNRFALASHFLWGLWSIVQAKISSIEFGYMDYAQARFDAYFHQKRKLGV
phosphatidylinositol 4-kinase beta (PIK4CB), sequence (Q9UBF8 whole entry): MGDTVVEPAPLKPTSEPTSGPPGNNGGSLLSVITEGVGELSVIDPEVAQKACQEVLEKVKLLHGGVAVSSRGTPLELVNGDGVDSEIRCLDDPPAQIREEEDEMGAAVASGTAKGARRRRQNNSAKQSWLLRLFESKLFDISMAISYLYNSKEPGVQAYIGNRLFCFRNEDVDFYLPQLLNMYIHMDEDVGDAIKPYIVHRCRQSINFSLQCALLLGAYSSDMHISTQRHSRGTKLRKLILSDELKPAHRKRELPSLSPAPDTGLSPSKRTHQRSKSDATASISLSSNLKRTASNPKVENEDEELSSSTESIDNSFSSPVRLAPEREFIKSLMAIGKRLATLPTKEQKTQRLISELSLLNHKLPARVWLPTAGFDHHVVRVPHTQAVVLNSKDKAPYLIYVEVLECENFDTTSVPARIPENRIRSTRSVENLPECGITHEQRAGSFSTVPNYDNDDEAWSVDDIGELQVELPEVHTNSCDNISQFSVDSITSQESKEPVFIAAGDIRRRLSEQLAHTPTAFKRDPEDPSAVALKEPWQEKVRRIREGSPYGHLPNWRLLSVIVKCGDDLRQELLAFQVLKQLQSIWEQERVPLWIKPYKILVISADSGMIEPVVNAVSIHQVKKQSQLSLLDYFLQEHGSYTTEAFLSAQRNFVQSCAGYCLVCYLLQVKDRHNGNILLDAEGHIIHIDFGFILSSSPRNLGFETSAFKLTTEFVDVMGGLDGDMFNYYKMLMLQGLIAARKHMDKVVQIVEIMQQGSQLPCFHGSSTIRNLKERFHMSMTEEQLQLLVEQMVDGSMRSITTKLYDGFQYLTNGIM
CHK b (CHKB), sequence (Q9Y259 whole entry): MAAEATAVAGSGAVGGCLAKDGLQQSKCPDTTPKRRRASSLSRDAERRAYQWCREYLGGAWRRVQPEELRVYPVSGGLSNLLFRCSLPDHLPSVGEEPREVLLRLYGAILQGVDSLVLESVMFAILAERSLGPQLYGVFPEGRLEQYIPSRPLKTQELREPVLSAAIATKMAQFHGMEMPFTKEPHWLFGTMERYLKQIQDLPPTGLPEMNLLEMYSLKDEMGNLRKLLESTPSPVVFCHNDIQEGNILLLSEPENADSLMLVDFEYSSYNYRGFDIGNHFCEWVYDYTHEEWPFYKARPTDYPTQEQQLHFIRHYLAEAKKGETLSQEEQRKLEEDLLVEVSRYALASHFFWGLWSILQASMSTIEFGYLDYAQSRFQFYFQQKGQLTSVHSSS
PI4K2a, sequence (Q9BTU6 whole entry): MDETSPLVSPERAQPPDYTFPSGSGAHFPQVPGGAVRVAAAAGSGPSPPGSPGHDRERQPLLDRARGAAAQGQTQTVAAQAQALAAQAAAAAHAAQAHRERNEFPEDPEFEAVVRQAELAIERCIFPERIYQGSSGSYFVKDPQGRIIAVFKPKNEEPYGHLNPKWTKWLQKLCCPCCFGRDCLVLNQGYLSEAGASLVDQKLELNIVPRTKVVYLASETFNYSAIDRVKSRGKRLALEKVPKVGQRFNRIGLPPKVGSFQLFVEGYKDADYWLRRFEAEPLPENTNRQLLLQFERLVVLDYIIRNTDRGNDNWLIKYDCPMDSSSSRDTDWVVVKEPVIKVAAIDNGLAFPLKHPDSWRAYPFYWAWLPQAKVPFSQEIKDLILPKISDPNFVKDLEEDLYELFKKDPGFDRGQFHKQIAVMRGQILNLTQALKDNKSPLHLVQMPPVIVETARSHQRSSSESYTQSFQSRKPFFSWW

% Inhibition PI3Ka E524K + p85 (PI3Ka E524K + p85): 1.6% | inhibition at 10 µM (DGK g): 12.8% | inhibition at 10 µM (CHK a (CHKA)): 77% | Matrix Stability: Remaining % ([1]; FaSSGF): 95% | half-life ([1]; fasted state simulated gastric fluid (FaSSGF), fasted state simulated gastric fluid, pH 1.6, read-out: FaSSGF stability Half-life (converted)): > 10 h | efflux ratio ([2]; Caco-2, read-out: Efflux ratio (Papp B-A/Papp A-B)): > 87 | Papp A→B ([2]; Caco-2, apical to basolateral, read-out: Papp A-B): < 1 nm/s | Papp B→A ([2]; Caco-2, basolateral to apical, read-out: Papp B-A): 87 nm/s | inhibition at 10 µM (PIP5K2A): -2.7% | inhibition at 10 µM (DGK z): 4.7% | inhibition at 10 µM (SPHK1): -10.1% | inhibition at 10 µM [3]: -4.1% | solubility kinetic (Kinetic solubility assay): 154 µM | inhibition at 10 µM (PI3Ka E545K + p85): -15.2% | inhibition at 10 µM (SPHK2): 16% | PCT_LBF % (percentage of compound removed compared to liver blood flow) ([6]; human): <45% | Human Microsomal Metabolic Stability: Remaining % ([6]; human liver microsome S9): 101% | microsomal CLint ([6]; human, human liver microsome S9, human liver microsome S9, read-out: Human Microsomal Metabolic Stability: Clint): < 14 µL/min/mg | half-life ([6]; human, human liver microsome S9, human liver microsome S9, read-out: Human Microsomal Metabolic Stability: Half-life): > 1.67 h | Predicted in vivo clearance ([6]; scaled from microsomal clearance (liver weight, microsomes per liver, liver blood flow), human): <0.6 L/h/kg | inhibition at 10 µM (DGK b): 11.9% | inhibition at 10 µM (PI3K g): 16.4% | inhibition at 10 µM (PI3K b): -36.2% | inhibition at 10 µM (CHK b (CHKB)): -33.7% | inhibition at 10 µM (PI3K a): -1.9% | inhibition at 10 µM (PI4K2a): -48.8%
SMILES: CN(C)c1cc[n+](CCCCCCCCCCCCCC[n+]2ccc(N(C)C)cc2)cc1.[Br-].[Br-] [CK14, reference compound]
GI50 (A549): 0.33 µM | inhibition at 1 µM ([4]; 1 μM, read-out: inhibition of [18F]D4-FCH uptake (mean of CK14, CK145 and CK146)): 46 ± 1% | inhibition at 10 µM ([4]; 10 μM): 93 ± 5% | IC50 [5]: 0.15 µM | GI50 (HCT-116): 0.29 µM

SMILES: CN(C)c1cc[n+](CCCCCCCCCCCCCC[n+]2ccc(N3CCN(C(=O)CSC4CC(=O)N(CCC(=O)NCCCCCC(=O)NCCCCC(NC(=O)NC(CCC(=O)OC(C)(C)C)C(=O)OC(C)(C)C)C(=O)OC(C)(C)C)C4=O)CC3)cc2)cc1 (stereo not drawn) [CK148]
cellular uptake, mean ± SD of two experiment groups ([7]; FCS positive and negative groups): 42.5 ± 11.5 % μg^−1 protein | detection in cell lysates by HPLC (in words) ([7]; both FCS groups): detected
